Reference: patent US8686044B2, “Amide derivative, pest control agent containing the amide derivative, and use of the amide derivative” (Mitsui Chemicals Agro, Inc., priority 2008, dated 2014)

Assays:
Type in all cases: in vivo
[1] = system: Blattella germanica; test: Pesticidal test against Blattella germanica (petri dish dry film); conditions: 24 h, concentration 100 ppm, female adults, examined after 1 day, 25° C., read-out: pesticidal rate
Method in brief: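 Acetone solution of test compound at a predetermined concentration dried as a film in a 9 cm petri dish; female adult cockroaches released onto it and kept at 25° C. Living and dead counted after 1 day; five insects per group, two replicates.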

[2] = system: Coptotermes formosanus; test: Pesticidal test against Coptotermes formosanus (treated filter paper); conditions: 120 h, concentration 30 ppm, examined after 5 days of treatment, 28° C., read-out: pesticidal rate
[3] = system: Rhipicephalus sanguineus; test: Insecticidal test for Rhipicephalus sanguineus (treated glass petri dish, Table A6); conditions: adults of Rhipicephalus sanguineus, 18 hour exposure, examined after 48 hours, in single
Procedure: Insecticidal Test for Rhipicephalus sanguineus
0.5 ml of a solution of acetone, the active ingredient, prepared to the prescribed dose was added dropwise into a glass petri dish with a diameter of 10 cm, and the acetone was evaporated at room temperature. About 10 adults of Rhipicephalus sanguineus per dish were added, and the dish was covered by another glass petri dish that was treated with the active ingredient in the same manner described above. After 18 hour exposure to the test substance, the adults were transferred into a glass petri dish that was not treated with the active ingredient. After 48 hours of the exposure, the conditions of the adults were examined and classified into “alive” and “dead (including a moribund condition)” to determine the death rate (in single).
As the comparative compounds, said Compounds (B), (C), and (D), and the following Compound (F) disclosed in WO2009/080203, and fipronil were used.

[4] = system: Ctenocephalides Felis; test: Insecticidal test for Ctenocephalides felis, Test Example 1 (dry film in glass tube, 0.5 ml, Table A4); conditions: adults

## CN(C(=O)c1ccccc1)c1cccc(C(=O)Nc2c(Br)cc(C(F)(C(F)(F)F)C(F)(F)F)cc2C(F)(F)F)c1F [7-1574, N-(2-bromo-4-(perfluoropropan-2-yl)-6-(trifluoromethyl)phenyl)-2-fluoro-3-(N-methylbenzamide)benzamide]
[1]
  pest or weed control at 100 ppm: ≥ 70%
[2]
  pest or weed control at 30 ppm: ≥ 70%
[3]; 0.0431 mg/m^2
  death rate: 10.0%
[3]; 0.0861 mg/m^2
  death rate: 100.0%
[3]; 0.172 mg/m^2
  death rate: 100.0%
[4]
  effect in the examination after 12 hours of the exposure: effective

## CN(C(=O)c1ccc(F)cc1)c1cccc(C(=O)Nc2c(I)cc(C(F)(C(F)(F)F)C(F)(F)F)cc2C(F)(F)F)c1F [7-1733, 2-fluoro-3-(4-fluoro-N-methylbenzamide)-N-(2-iodo-4-(perfluoropropan-2-yl)-6-(trifluoromethyl)phenyl)benzamide]
[1]
  pest or weed control at 100 ppm: ≥ 70%
[2]
  pest or weed control at 30 ppm: ≥ 70%
[3]; 0.0431 mg/m^2
  death rate: 0.0%
[3]; 0.0861 mg/m^2
  death rate: 80.0%
[3]; 0.172 mg/m^2
  death rate: 100.0%
